{
  "source": "patent US20100041632A1",
  "about": "“USES OF THE CARBOXY-AMIDO-TRIAZOLE COMPOUNDS AND SALTS THEREOF” (priority 2006, published 2010)",
  "key": {"Kunming mice [1]": {"test_system": "Kunming mice", "test": "Effect of CAI on drug addiction caused by morphine (naloxone-induced jumping)", "conditions": "mouse, in vivo", "procedure": "160 Kunming mice (18-22 g, half male and half female) were divided into 4 groups randomly, with 40 mice per group:\nControl group with solvent, PEG400/N.S. (10 μl/g/day PEG400, (ig), 4 days);\nGroup treated with CAI, CAI/N.S. (CAI is resolved in PEG400 to reach a final concentration of […], 20 mg CAI/kg/day was administered (ig) for 4 days, N.S. was taken according to morphine administration in table 1);\nGroup treated with morphine, PEG400/morphine (10 μl/g/day PEG400 was administered (ig) for 4 days, morphine was administered according to the table below);\n4 hours after the morphine administration on the fifth day, animals of each group was injected (ip) with 1 mg/kg naloxone and then put into a tank (5000 ml) immediately. The jump frequency in 30 minutes was recorded. Two-factor analysis of variance by SPSS was performed to analyse the experiment results."}, "Kunming mice [2]": {"test_system": "Kunming mice", "test": "Formalin test (analgesic effect)", "type": "in vivo", "procedure": "320 Kunming mice (18-22 g, half male and half female) were divided into 4 groups randomly with 80 animals in each group.\nControl group with dissolvent (PEG400/N.S.): 10 μl PEG400 was administered (ig) twice with the interval of 24 hours. The pain intensity test was carried out 8 hours after the second administration. 200 μl N.S. is injected (sc) 5 minutes before the test.\n(§1) Morphine/PEG400 group: 10 μl PEG400 was administered (ig) twice with the interval of 24 hours. The pain intensity test was carried out 8 hours after the second administration. Morphine (2 mg/kg body weight) was injected (sc) 5 minutes before the test.\n(§2) CAI/N.S. group: CAI (20 mg/kg body weight, 2 mg/ml) was administered (ig) twice with the interval of 24 hours. The pain intensity test was carried out 8 hours after the second administration. 200 μl N.S. was injected (sc) 5 minutes before the test.\nThe pain intensity test was carried out 8 hours after the second administration. Morphine (2 mg/kg body weight) was injected (sc) 5 minutes before the test.\n5 minutes after the morphine or N.S. injection, 20 μl 2% formalin was injected (sc) into the subplantar space of the hind paw. The animals were placed immediately in a glass cylinder hanging on a holder, with a mirror placed below with 30° slope to observe the paw responses. The pain responses of the animals with injected paws were recorded; a pain ranking was recorded as follows: 3=the injected paw is licked, bitten, or shaken; 2=the injected paw is elevated and is not in contact with any other surface; 1=the injected paw has little or no weight on it; 0=the injected paw is not favored. The duration of each of the 4 behavioral categories was recorded. The observation lasted for 15 minutes. A pain intensity score was calculated by multiplying the amount of time spent in each category by its assigned category score and adding these products together."}, "Kunming mice [3]": {"test_system": "Kunming mice", "test": "Radiant heat test (tail-flick)", "type": "in vivo", "procedure": "The radiant heat dolorimeter (Collumbus Instruments) is used in this model with the tail-flick mode and the exposure rate of 20. The latency periods (TFL) starting from the beginning of exposure to the tail-flick responses were recorded as the pain threshold. The exposure time lasted for 16 seconds.\nKunming mice (18-22 g, male) are tested for the basic pain threshold before the test with drug administration, and those with pain threshold longer than 16 seconds are excluded. The selected mice are divided into 4 groups with 15 animals per group.\nControl group with dissolvent: 10 μl PEG400 was administered (ig) twice with the interval of 24 hours. The pain intensity test was carried out 8 hours after the second administration. 200 μl N.S. was injected (sc) 5 minutes before the test.\nas §1, §2\nThe pain intensity test was carried out 8 hours after the second administration, morphine (2 mg/kg body weight) was injected (sc) 5 minutes before the test.\nThe pain threshold of each mouse was tested before and after morphine or N.S. injection. The values after drug administration minus those before drug administration were considered to be the changing index of pain threshold."}, "Kunming mice [4]": {"test_system": "Kunming mice", "test": "Mouse writhing test (acetic acid)", "type": "in vivo", "conditions": "20 mg/kg ig for 4 days", "procedure": "Kunming mice (18-22 g, male) were randomly divided into several groups with 20 animals in each group.\nControl group: PEG400 was administered (ig) for 4 days, 0.1 ml/10 g body weight.\nTest groups: CAI and its analogues (compounds with structural formula of A, R1═Cl or H, R2═Cl, H, Br, CH3 or CF3, R3═Cl, Br, CF3, NO2 or CN, X═O, S or C═O; The compounds are listed in Table 6 (A1˜A10)) were administered (ig) for 4 days (20 mg/kg body weight, 2 mg/ml).\nThe pain intensity test was carried out 8 hours after the last drug administration. 0.6% acetic acid (0.1 ml/10 g body weight) was injected (ip). The animals were put into a glass cylinder immediately. The writhing frequency in the following 5-15 minutes was recorded."}, "Wistar rats": {"test_system": "Wistar rats", "test": "Adjuvant induced arthritis (AA) of rat, paw oedema", "type": "in vivo", "procedure": "Negative control (AA+NS): […] positive control (AA+Dex): dexamethasone, i.p., 0.067 mg/kg/day. Vehicle control (AA+PEG400): […] CAI (AA+CAI): 20 mg/ml CAI, ig, 0.1 ml/100 g/day (20 mg/kg/day). Combination (AA+CAI+Dex): dexamethasone, 0.067 mg/kg/day (i.p.) plus CAI 20 mg/kg/day (p.o.). Normal volumes of left and right hind paw were measured before adjuvant injection. […]"}, "IL-1β": {"test_system": "IL-1β", "test": "IL-1β levels in paw tissue and serum of adjuvant arthritis rat (ELISA)", "type": "in vivo", "conditions": "AA rats, day 29, ELISA", "procedure": "The adjuvant arthritis rat was prepared as described in example 8. Treatment was performed as described in example 8. Blood was collected from eve socket on day 29 and left in room temperature to allow coagulating. Then serum was separated by centrifugation at 3000 rpm for 10 min and kept in −20° C. After animals were sacrificed, the subcutaneous tissue of the right hind paw and that surrounding the tarsotibial joints was removed, broke into pieces, and placed in 5 ml normal saline (0.9%). The tissues were homogenized in a high speed homogenizer. Then the homogenate was centrifuged at 4° C. and 10,000 rpm for 15 min. The supernatants were collected and stored at −20° C. until further analysis.\nIL-1β and TNF-α levels in paw tissue and serum were measured using specific rat ELISA kits according to the manufacturer's instructions."}},
  "data": [
    {"compound": "NC(=O)c1nnn(Cc2cc(Cl)c(C(=O)c3ccc(Cl)cc3)c(Cl)c2)c1N", "note": "[CAI, 5-amino-1-[3,5-dichloro-4-(4-chlorobenzoyl chloride)benzyl]-1H-1,2,3-triazole-4-carboxamide]", "values": [
      {"measurement": "Addiction / withdrawal syndrome (in words)", "setting": "Kunming mice [1]", "value": "does not cause addiction"},
      {"measurement": "Pain intensity score (mean ± std)", "setting": "Kunming mice [2]; 2% formalin sc hind paw, 15 minutes observation, CAI 20 mg/kg ig twice, morphine 2 mg/kg sc", "value": "1007 ± 255"},
      {"measurement": "Analgesic effect in formalin test (in words)", "setting": "Kunming mice [2]; pain scores compared with the control group", "value": "decrease significantly"},
      {"measurement": "Analgesic effect in radiant heat test (in words)", "setting": "Kunming mice [3]; compared with the control group", "value": "neither have obvious analgesic effect alone"},
      {"measurement": "Pain threshold change (seconds, mean ± std)", "setting": "Kunming mice [3]; tail-flick latency after minus before drug, CAI 20 mg/kg ig twice, morphine 2 mg/kg sc", "value": "2.56 ± 2.62", "unit": "s"},
      {"measurement": "Analgesic effect in writhing test (in words)", "setting": "Kunming mice [4]", "value": "obvious analgesic effect"},
      {"measurement": "Writhing frequency mean ± std", "setting": "Kunming mice [4]; 0.6% acetic acid ip, writhing in following 5-15 minutes", "value": "8.1 ± 2.3"},
      {"measurement": "Primary paw oedema (%), mean ± std", "setting": "Wistar rats; 1 d, CAI 20 mg/kg/day ig, Dex 0.067 mg/kg/day i.p.", "value": "116.2 ± 17.6", "unit": "%"},
      {"measurement": "Primary paw oedema (%), mean ± std", "setting": "Wistar rats; 2 d", "value": "131.9 ± 23.0", "unit": "%"},
      {"measurement": "Primary paw oedema (%), mean ± std", "setting": "Wistar rats; 5 d", "value": "122.4 ± 12.4", "unit": "%"},
      {"measurement": "Primary paw oedema (%), mean ± std", "setting": "Wistar rats; 8 d", "value": "121.6 ± 21.6", "unit": "%"},
      {"measurement": "Primary paw oedema (%), mean ± std", "setting": "Wistar rats; 11 d", "value": "129.3 ± 23.5", "unit": "%"},
      {"measurement": "Primary paw oedema (%), mean ± std", "setting": "Wistar rats; 14 d", "value": "112.0 ± 15.7", "unit": "%"},
      {"measurement": "Secondary paw oedema (%), mean ± std", "setting": "Wistar rats; 14 d, right hind paw", "value": "2.3 ± 1.0", "unit": "%"},
      {"measurement": "Primary paw oedema (%), mean ± std", "setting": "Wistar rats; 17 d", "value": "104.3 ± 20.7", "unit": "%"},
      {"measurement": "Secondary paw oedema (%), mean ± std", "setting": "Wistar rats; 17 d", "value": "3.1 ± 0.8", "unit": "%"},
      {"measurement": "Primary paw oedema (%), mean ± std", "setting": "Wistar rats; 20 d", "value": "92.2 ± 16.0", "unit": "%"},
      {"measurement": "Secondary paw oedema (%), mean ± std", "setting": "Wistar rats; 20 d", "value": "8.8 ± 3.2", "unit": "%"},
      {"measurement": "Primary paw oedema (%), mean ± std", "setting": "Wistar rats; 23 d", "value": "92.4 ± 15.4", "unit": "%"},
      {"measurement": "Secondary paw oedema (%), mean ± std", "setting": "Wistar rats; 23 d", "value": "8.6 ± 2.3", "unit": "%"},
      {"measurement": "Primary paw oedema (%), mean ± std", "setting": "Wistar rats; 26 d", "value": "88.6 ± 13.4", "unit": "%"},
      {"measurement": "Secondary paw oedema (%), mean ± std", "setting": "Wistar rats; 26 d", "value": "8.6 ± 1.9", "unit": "%"},
      {"measurement": "Primary paw oedema (%), mean ± std", "setting": "Wistar rats; 29 d", "value": "86.9 ± 23.1", "unit": "%"},
      {"measurement": "Secondary paw oedema (%), mean ± std", "setting": "Wistar rats; 29 d", "value": "6.5 ± 2.7", "unit": "%"},
      {"measurement": "Effect on paw oedema of AA rats (in words)", "setting": "Wistar rats; compared with control group, two-way ANOVA", "value": "inhibits primary and secondary paw oedema"},
      {"measurement": "IL-1β levels in paw tissue and serum (in words)", "setting": "IL-1β", "value": "significantly reduced"}
    ]}
  ]
}
